Converted amounts (≈) assume the structure as drawn. “And” between values parts separate entries of the source, which are not always exact repeats. Equal values may be shown once. Read-outs that look alike come from different tables or passages of the source.
Experiments:
B. subtilis = test: MIC/MBC assay, twofold serial dilution; type: cell-based, Bacillus subtilis
Protocol: (§1) The results of this in vitro assay test are consistent with the findings of the antimicrobial sensitivity test. […] It has lower antimicrobial activity than ciprofloxacin against all pathogens tested.
(§2) The MBC differs from the MIC. […]
(§3) 4.2.2. Minimum inhibitory concentration assay
(§4) In 96-well microtiter plates and […] of fresh bacterial culture of a single McFarland unit overnight, a double serial dilution of each compound […] in sterile standard saline were prepared to every single source well. Ciprofloxacin antibiotic (5 mg / mL - 1) and normal saline were included as standard reference in each assay. The plates were incubated at 37 0C overnight. As an indicator of bacterial growth, […] of p-iodonitrotetrazolium violet (INT) was added to each well and incubated at 37 0C for 30 […]
(§5) min. MIC values are recorded as the lowest concentration of the extract that completely inhibited bacterial growth that is clear well. The colorless tetrazolidium salt acts as an electron accepter and is reduced to a red colored formazan product by biological activity organisms. Where bacterial growth was inhibited, the solution in the well remained clear after incubation with INT. […]

S. aureus = test: MIC/MBC assay, twofold serial dilution; type: cell-based, Staphylococcus aureus
Protocol: as §1, §2, §3, §4, §5

E. coli = test: MIC/MBC assay, twofold serial dilution; type: cell-based, Escherichia coli; conditions: Escherichia coli
Protocol: as §1, §2, §3, §4, §5

P. aeruginosa = test: MIC/MBC assay, twofold serial dilution; type: cell-based, Pseudomonas aeruginosa
Protocol: as §1, §2, §3, §4, §5

[1] = test system: S. aureus (ATCC 43300) (MRSA); test: Antibacterial assay against multi-drug resistant strains (MIC/MBC); type: cell-based, Staphylococcus aureus; conditions: S. aureus ATCC 43300 (MRSA); for MBC: read-out: MBC
E. coli (ATCC BAA-196) = test: as above; type: cell-based, Escherichia coli; conditions: for MBC: ATCCBAA196
[2] = test system: P. aeruginosa (ATCC BAA-2111); test: as above; type: cell-based, Pseudomonas aeruginosa; conditions: for MBC: ATCCBAA2111
E. coli DNA gyrase = E. coli DNA gyrase (Escherichia coli, UniProt P0AES6); test: E. coli DNA gyrase supercoiling inhibitory assay; type: biochemical
Protocol: The fluorescence was measured with a microplate reader (BioTek Synergy H4,
NaCl and 50 mM MgCl2) was added to terminate the enzymatic reaction. After
Initial screening was done at 100 or 10 μM concentration

DHFR E. Coli = DHFR E. Coli (Escherichia coli, UniProt P0ABQ4); test: DHFR inhibitory assay; type: biochemical
[3] = Cell viability assay (MTT); type: cell-based; conditions: human, MCF-10A, 4-day incubation
Protocol: The vitality of the investigated compounds was assessed using the MCF-10A cell line, which is a normal human mammary gland epithelial cell line. Following a 4-day incubation period on MCF-10A cells with a concentration of 50 µM for each compound being studied, the viability of the cells was assessed using the MTT test ([Hisham et al., 2022]; [Mahmoud et al., 2022]).
4.2.3. Cell Viability assay
MTT assay was carried out to study the effect of compounds on mammary epithelial cells (MCF-10A). The medium in which cells were propagated contained Dulbecco's modified Eagle's medium (DMEM)/ Ham's F-12 medium (1:1) supplemented with epidermal growth factor (20 ng/mL), hydrocortisone (500 ng/mL), insulin (10 μg/mL), 2 mM glutamine and 10% fetal calf serum. After every 2-3 days, the cells were passaged using trypsin ethylenediamine tetra acetic acid (EDTA). The cells were seeded at a density of 10^4 cells mL-1 in flat-bottomed culture plates containing 96 wells each. After 24 h, medium was removed from the plates and the compounds in (in 0.1% DMSO) were added (in 200 μL medium to yield a final concentration of 0.1% v/v) to the wells of plates. A single compound was designated with four wells followed by incubation of plates for 96h at 37°C. After incubation, medium was removed completely from the plates followed by addition of MTT (0.4 mg/mL in medium) to each well and subsequent incubation of plates for 3h. MTT (along with the medium) was removed and DMSO (150μL) was added to each well of the culture plates, followed by vortexing and subsequent measurement of absorbance (at 540 nm) using microplate reader. The data are shown as percentage inhibition of proliferation in comparison with controls

Gram-positive bacteria = test: MBC assay, Gram-positive bacteria together; type: cell-based; conditions: Gram-positive bacteria (B. subtilis, S. aureus)
Text: The MBC differs from the MIC.

[4] = test system: MDRB (multi-drug resistant bacteria); test: MIC/MBC against the MDRB panel as a whole; conditions: for MBC: read-out: MBC values; for MIC: read-out: MIC values
Text: Norfloxacin, a broad-spectrum antibiotic, worked as positive control.

A. flavus = test: Antifungal assay (MIC/MFC), twofold serial dilution; conditions: for MIC: A. flavus
C. albicans = test: as above
S. aureus DNA gyrase = target: S. aureus DNA gyrase; set-up: method as in Alzahrani et al., 2022; conditions: ref Alzahrani et al., 2022; read-out: S. aureus DNA gyrase inhibitor IC50; cited from earlier work
[5] = Staphylococcus aureus, read-out: MIC
[6] = Escherichia coli, ATCCBAA196, read-out: MIC
[7] = Pseudomonas aeruginosa, ATCCBAA2111, read-out: MIC

Sequence of DHFR E. Coli (P0ABQ4 whole entry): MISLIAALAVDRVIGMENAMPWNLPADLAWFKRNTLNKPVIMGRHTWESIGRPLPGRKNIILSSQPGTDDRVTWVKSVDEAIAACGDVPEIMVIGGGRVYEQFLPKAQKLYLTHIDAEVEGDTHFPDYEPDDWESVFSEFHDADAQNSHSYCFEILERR

Compound: O=C1Nc2ccc([N+](=O)[O-])cc2/C1=N/NC(=O)c1cc(Cc2ccc(O)c(C(=O)N/N=C3\C(=O)Nc4ccc([N+](=O)[O-])cc43)c2)ccc1O [Compound 6l]
- MBC (B. subtilis): 0.043 ± 0.003 µM (≈ 0.0286 µg/mL)
- Times less effective than ciprofloxacin (MIC) (B. subtilis): 2.5 times
- MBC (B. subtilis; Bacillus subtilis, read-out: MBC): 0.043 µM (≈ 0.0286 µg/mL)
- MIC (B. subtilis; Bacillus subtilis, read-out: MIC): 0.026 ± 0.002 µM (≈ 0.0173 µg/mL)
- MBC (S. aureus): 0.033 ± 0.002 µM (≈ 0.0219 µg/mL)
- MIC (S. aureus): 0.021 ± 0.002 µM (≈ 0.014 µg/mL)
- Times more effective than ciprofloxacin (MIC) (S. aureus): 1.5 times
- MBC (S. aureus; Staphylococcus aureus, read-out: MBC): 0.033 µM (≈ 0.0219 µg/mL)
- MIC (S. aureus; [5]): 0.021 µM (≈ 0.014 µg/mL)
- MBC (E. coli; read-out: MBC): 0.077 ± 0.006 µM (≈ 0.0512 µg/mL)
- MIC (E. coli; read-out: MIC): 0.057 ± 0.004 µM (≈ 0.0379 µg/mL)
- MBC (P. aeruginosa): 0.078 ± 0.006 µM (≈ 0.0518 µg/mL)
- MBC (P. aeruginosa; Pseudomonas aeruginosa, read-out: MBC): 0.078 µM (≈ 0.0518 µg/mL)
- MIC (P. aeruginosa; Pseudomonas aeruginosa, read-out: MIC): 0.057 ± 0.004 µM (≈ 0.0379 µg/mL)
- MBC ([1]; Staphylococcus aureus): 4.5 ± 0.2 µM (≈ 2.99 µg/mL)
- MIC [1, 5]: 2.2 ± 0.1 µM (≈ 1.46 µg/mL)
- MBC (E. coli (ATCC BAA-196); Escherichia coli): 4.8 ± 0.2 µM (≈ 3.19 µg/mL)
- MIC (E. coli (ATCC BAA-196); [6]): 2.7 ± 0.1 µM (≈ 1.79 µg/mL)
- MBC ([2]; Pseudomonas aeruginosa): 6.5 ± 0.25 µM (≈ 4.32 µg/mL)
- MIC [2, 7]: 4.5 ± 0.2 µM (≈ 2.99 µg/mL)
- IC50 (E. coli DNA gyrase): 0.087 ± 0.006 µM
- Potency relative to novobiocin against DNA gyrase (E. coli DNA gyrase): twice as potent as novobiocin
- IC50 (DHFR E. Coli): 4.25 ± 0.1 µM
- viability at 96 h, 50 µM [3]: 89%
- MBC (Gram-positive bacteria): 0.028 to 0.058 µM (≈ 0.0186 to 0.0385 µg/mL)
- MBC [4]: 4.5 to 6.5 µM (≈ 2.99 to 4.32 µg/mL)
- MIC [4]: 2.2 to 4.5 µM (≈ 1.46 to 2.99 µg/mL)
- MIC (A. flavus): 15.60 µM and 15.60 ± 1 µM
- MFC (A. flavus; Aspergillus flavus): 31.1 ± 2 µM (≈ 20.7 µg/mL)
- MIC (A. flavus; Aspergillus flavus): 14.5 to 19.5 µM (≈ 9.64 to 13 µg/mL)
- MIC (C. albicans; C. albicans): 19.50 ± 1 µM (≈ 13 µg/mL)
- MFC (C. albicans; Candida albicans): 39.2 ± 3 µM (≈ 26.1 µg/mL)
- MIC (C. albicans; Candida albicans): 19.5 µM (≈ 13 µg/mL)

Compound: O=C1Nc2ccc(S(=O)(=O)N3CCOCC3)cc2/C1=N/NC(=O)C12CC3CC(CC(C3)C1)C2 [II]
- IC50 (S. aureus DNA gyrase): 19.3 µM

Compound: CCN(CC)S(=O)(=O)c1ccc2c(c1)C1(C(=O)N2)C(C#N)=COC(c2ccccc2)=C1C(C)=O (stereo not shown) [I]
- IC50 (S. aureus DNA gyrase): 18.1 µM

Compound: CCn1cc(C(=O)O)c(=O)c2cc(F)c(N3CCNCC3)cc21 [Norfloxacin, reference compound]
- MIC [1]: 1.20 ± 0.10 µM (≈ 0.383 µg/mL)
- MBC ([1]; Staphylococcus aureus): 2.8 ± 0.1 µM (≈ 0.894 µg/mL)
- MIC [1, 5]: 1.2 µM (≈ 0.383 µg/mL)
- MIC (E. coli (ATCC BAA-196)): 1.60 ± 0.10 µM (≈ 0.511 µg/mL)
- MBC (E. coli (ATCC BAA-196); Escherichia coli): 3.5 ± 0.1 µM (≈ 1.12 µg/mL)
- MIC (E. coli (ATCC BAA-196); [6]): 1.6 µM (≈ 0.511 µg/mL)
- MIC [2]: 3.20 ± 0.10 µM (≈ 1.02 µg/mL)
- MBC ([2]; Pseudomonas aeruginosa): 4.7 ± 0.2 µM (≈ 1.5 µg/mL)
- MIC [2, 7]: 3.2 µM (≈ 1.02 µg/mL)
- MBC [4]: 2.8 to 4.7 µM (≈ 0.894 to 1.5 µg/mL)
- MIC [4]: 1.2 to 3.2 µM (≈ 0.383 to 1.02 µg/mL)

— PMC11590026, “Synthesis, enzyme inhibition, and docking studies of new schiff bases of disalicylic acid methylene-based derivatives as dual-target antibacterial agents” (Frontiers in Chemistry, 2024)
